Results on 7 compounds are retold here after patent US7928126B2, “Cyanopyridine derivative and use thereof as medicine” (Mitsubishi Tanabe Pharma Corporation, priority 2005, dated 2011).

Test [1] relates to human colon cancer cell line SW620. As to the kind of experiment: Cancer cell growth inhibition (WST-8), SW620. The class given is cell-based. The settings on record: SW-620, 72 h, SW620, 3 days, read-out: Cell proliferation suppressive activity value IC50. The procedure:
(§1) Using RPMI1640 medium (manufactured by SIGMA) containing 10% fetal bovine serum, human prostate cancer cell line PC-3, human pancreatic cancer cell line PK-8, and human breast cancer cell line MDA-MB-453 were cultured at 37° C. under 5% CO2. Using DMEM/F-12 medium (manufactured by SIGMA) containing 10% fetal bovine serum, human colon cancer cell line HCT-116, human colon cancer cell line SW620, human ovarian cancer cell line SKOV-3, human prostate cancer cell line DU-145 and human pancreatic cancer cell line PANC-1 were cultured at 37° C. under 5% CO2. These cells were inoculated to a 96 well plate and cultured for one day. Thereto was added a compound diluted with a medium to a final concentration of 0.00064-20 μM (final DMSO concentration, 0.4%). After further cultivation for 3 days, WST-8 (0.16 mg/mL) was added to the culture medium and the culture medium was cultured for 2 hr. The absorbance at 650 nm was subtracted from the absorbance at 450 nm. The growth inhibitory activity was expressed by the decrease rate of the absorbance of compound addition group relative to the absorbance of compound non-addition group, and IC50 value was determined from the dose-reaction curve plotting the decrease rate of the absorbance, which was obtained by changing the concentration of the compound, and the concentration of the compound.
For orientation: Tetrazolium assays rely on reduction of a dye to a coloured formazan, in cell work by metabolically active cells.

Test [2] concerns human ovarian cancer cell line SKOV-3. In words: Cancer cell growth inhibition (WST-8), SKOV-3. The class given is cell-based. To be noted: SK-OV-3, 72 h, SKOV3, 3 days, read-out: Cell proliferation suppressive activity value IC50. The procedure: as §1
In test [3] the target is T1, Porcine brain tubulin protein (Sus scrofa, UniProt P02550+P02554).
T1 construct: 3.3 mg/ml Porcine brain tubulin protein: Cytoskeleton; purchased Cytoskeleton; host or cells: porcine brain (tissue-derived)
As to the kind of experiment: Tubulin polymerization assay (turbidity at 405 nm). Format: biochemical. The settings on record: 10 μM compound, maximum polymerization rate, 37° C.; read-out: inhibitory rate (%). The procedure:
A tubulin polymerization reaction mixture (50 μL) (80 mM Pipes pH=6.9, 0.5 mM MgCl2, 1 mM EGTA, 1 mM GTP, 3.3 mg/ml Porcine brain tubulin protein: Cytoskeleton, 10 μM compound) was prepared in a 96 well flat bottom plate under ice-cooling. This was placed in a plate reader (IWAKI microplate reader, EZS-ABS) controlled to a temperature of 37° C., whereby a temperature dependent tubulin polymerization reaction was initiated. Since the turbidity of the reaction mixture increases as the tubulin polymerization proceeds, the absorbance at 405 nm was measured every other minute for 30 min to monitor the polymerization reaction. Of the 30 min measures, the three largest differences per min of turbidity (generally those immediately after start of the reaction) were taken, and the average of the three values was calculated and taken as the maximum polymerization rate. Inhibitory percent (%)=(C−T)/C×100 wherein T is the maximum polymerization rate of the reaction mixture containing the compound, and C is the maximum polymerization rate of the reaction mixture without the compound.

The subject of test [4] is human prostate cancer cell line DU-145. As to the kind of experiment: Cancer cell growth inhibition (WST-8), DU-145. The class given is cell-based. To be noted: DU-145, 72 h, DU145, 3 days, read-out: Cell proliferation suppressive activity value IC50. On the procedure:
as §1

Test [5] has as its system human colon cancer cell line HCT-116. In words: Cancer cell growth inhibition (WST-8), HCT-116. Format: cell-based. To be noted: HCT-116, 72 h, HCT116, 3 days, read-out: Cell proliferation suppressive activity value IC50. On the procedure:
as §1

Test [6] deals with human prostate cancer cell line PC-3. As to the kind of experiment: Cancer cell growth inhibition (WST-8), PC-3. The class given is cell-based. To be noted: 72 h, PC3, 3 days, read-out: Cell proliferation suppressive activity value IC50. On the procedure:
as §1

The target in test [7] is T2, aurora 1 kinase (Homo sapiens, UniProt Q96GD4).
T2 construct: purchased UPSTATE
In words: Aurora 1 kinase assay (32P-ATP, peptide substrate LRRWSLG). The class given is biochemical. The settings on record: room temperature 60 min.

For test [8], the system named is human pancreatic cancer cell line PK-8. As to the kind of experiment: Cancer cell growth inhibition (WST-8), PK-8. The class given is cell-based. To be noted: 72 h, PK8, 3 days, read-out: Cell proliferation suppressive activity value IC50. On the procedure:
as §1

The subject of test [9] is human breast cancer cell line MDA-MB-453. In words: Cancer cell growth inhibition (WST-8), MDA-MB-453. Format: cell-based. The settings on record: MDA-MB-453, 72 h, MDAMB-453, 3 days, read-out: Cell proliferation suppressive activity value IC50. On the procedure: as §1
Test [10] deals with human pancreatic cancer cell line PANC-1. In words: Cancer cell growth inhibition (WST-8), PANC-1. The class given is cell-based. To be noted: 72 h, PANC-1, 3 days, read-out: Cell proliferation suppressive activity value IC50. The procedure: as §1
In test [11] the target is T3, aurora 2 kinase (Homo sapiens, UniProt O14965).
T3 construct: The amplified gene encoding aurora 2 kinase was introduced into Escherichia coli expression vector pET32a; made in house; host or cells: Escherichia coli BL21R (Novagen), vector pET32a
T3 sequence (O14965 1-403): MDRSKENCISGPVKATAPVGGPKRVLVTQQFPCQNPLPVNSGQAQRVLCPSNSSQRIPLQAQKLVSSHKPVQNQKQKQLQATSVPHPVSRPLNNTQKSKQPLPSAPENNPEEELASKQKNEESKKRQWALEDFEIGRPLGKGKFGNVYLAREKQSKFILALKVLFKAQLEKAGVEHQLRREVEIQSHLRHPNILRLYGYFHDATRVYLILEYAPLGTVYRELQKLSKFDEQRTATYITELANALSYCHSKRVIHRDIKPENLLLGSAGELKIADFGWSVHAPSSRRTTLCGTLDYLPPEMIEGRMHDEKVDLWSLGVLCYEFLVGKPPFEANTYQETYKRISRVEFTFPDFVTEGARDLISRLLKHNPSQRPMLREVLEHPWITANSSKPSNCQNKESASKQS
In words: Aurora 2 kinase assay (32P-ATP, peptide substrate LRRASLG). The class given is biochemical. The settings on record: room temperature 60 min.

In test [12] the test system is human cancer cell lines. In words: Cancer cell growth inhibitory effect, whole cell line panel. The class given is cell-based. The settings on record: over the panel of cell lines. The procedure: as §1

Counter-ions that a name gives are not always drawn. Some results are limits rather than exact numbers.

T1 sequence (P02550 whole entry): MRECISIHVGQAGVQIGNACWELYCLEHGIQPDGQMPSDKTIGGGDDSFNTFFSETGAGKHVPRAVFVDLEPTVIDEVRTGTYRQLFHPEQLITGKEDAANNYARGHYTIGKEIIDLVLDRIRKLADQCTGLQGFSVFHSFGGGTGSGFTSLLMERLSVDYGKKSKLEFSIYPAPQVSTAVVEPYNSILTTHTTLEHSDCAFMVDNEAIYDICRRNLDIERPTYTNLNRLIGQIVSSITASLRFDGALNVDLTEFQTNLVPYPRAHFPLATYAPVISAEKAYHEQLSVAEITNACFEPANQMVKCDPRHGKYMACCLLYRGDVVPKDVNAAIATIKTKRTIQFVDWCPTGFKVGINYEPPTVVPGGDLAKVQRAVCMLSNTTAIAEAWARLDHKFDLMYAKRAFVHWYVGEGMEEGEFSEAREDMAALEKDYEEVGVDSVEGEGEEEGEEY
T1 sequence (P02554 whole entry): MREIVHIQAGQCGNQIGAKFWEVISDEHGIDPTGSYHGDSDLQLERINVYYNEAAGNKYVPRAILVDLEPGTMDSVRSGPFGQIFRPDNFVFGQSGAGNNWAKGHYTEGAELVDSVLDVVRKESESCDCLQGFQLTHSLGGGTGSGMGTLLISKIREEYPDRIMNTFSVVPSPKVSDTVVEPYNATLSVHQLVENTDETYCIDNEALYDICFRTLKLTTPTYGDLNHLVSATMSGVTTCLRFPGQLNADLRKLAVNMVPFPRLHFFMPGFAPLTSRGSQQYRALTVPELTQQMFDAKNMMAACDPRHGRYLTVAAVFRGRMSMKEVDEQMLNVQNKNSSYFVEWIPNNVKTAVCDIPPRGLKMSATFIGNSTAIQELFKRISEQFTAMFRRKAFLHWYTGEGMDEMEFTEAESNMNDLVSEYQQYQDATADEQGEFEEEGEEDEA
T2 sequence (Q96GD4 whole entry): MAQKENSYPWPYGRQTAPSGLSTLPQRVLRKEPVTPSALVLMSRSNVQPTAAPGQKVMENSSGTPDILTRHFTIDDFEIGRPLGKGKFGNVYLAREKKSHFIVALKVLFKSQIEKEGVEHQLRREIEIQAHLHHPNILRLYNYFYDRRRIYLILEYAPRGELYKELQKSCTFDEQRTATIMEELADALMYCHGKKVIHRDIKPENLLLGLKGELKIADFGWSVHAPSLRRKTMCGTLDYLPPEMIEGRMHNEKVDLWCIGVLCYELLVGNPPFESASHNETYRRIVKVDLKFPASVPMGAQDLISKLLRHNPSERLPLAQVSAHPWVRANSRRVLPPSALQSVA

For the compound `Cc1cc(Nc2cc(C)c(C#N)c(NCCOc3ccccc3)n2)n[nH]1` [Example 2, 2-(2-phenoxyethylamino)-6-(5-methyl-1H-pyrazol-3-ylamino)-4-methylnicotinonitrile], the IC50 in test [1] amounted to 8 nM; in test [2] it was 10 nM; in [4], 7 nM; in [5], 11 nM; in test [6] it was 17 nM; in test [8], 18 nM. Further, the IC50 in test [9] amounted to 7 nM; in test [10], 1290 nM. The inhibition at 10 µM in test [3] was 69%. For the same compound, the Ki in test [7] is not above 100 nM; in test [11], 3 nM.
For the compound `Cc1cc(Nc2cc(C)c(C#N)c(NCCOc3cccc(F)c3)n2)n[nH]1` [Example 9, 2-(2-(3-fluorophenoxy)ethylamino)-6-(5-methyl-1H-pyrazol-3-ylamino)-4-methylnicotinonitrile hydrochloride], the IC50 was less than 6.4 nM in [1]; less than 6.4 nM in test [2]; 647 nM in [4]; 17 nM in test [5]; less than 6.4 nM in test [6]; 83 nM in test [8]. The IC50 in test [9] is less than 6.4 nM; in test [10] it was 1180 nM. Further, the inhibition at 10 µM in test [3] was 86%. For the same compound, in test [11], the Ki was 1 nM.
Regarding `Cc1cc(Nc2cc(C)c(C#N)c(NCCOc3cccnc3)n2)n[nH]1` [Example 12, 2-(2-(pyridin-3-yloxy)ethylamino)-6-(5-methyl-1H-pyrazol-3-ylamino)-4-methylnicotinonitrile dihydrochloride], the IC50 is less than 6.4 nM in test [1]; 1 nM in test [2]; 7 nM in test [4]; 2 nM in test [5]; 7 nM in test [6]; 4 nM in test [8]. The IC50 in test [9] is 3 nM; in [10], 9 nM. Besides, the inhibition at 10 µM in test [3] is 44%. Besides, the Ki in test [7] was not above 100 nM; in test [11], 2 nM. Further, in test [12], the “cancer cell growth inhibitory action (in words)” value is on record as “good cancer cell growth inhibitory action over a broad range”.
As for `Cc1ccc(OCCNc2nc(Nc3cc(C)[nH]n3)cc(C)c2C#N)cn1` [Example 21, 2-(2-(6-methylpyridin-3-yloxy)ethylamino)-6-(5-methyl-1H-pyrazol-3-ylamino)-4-methylnicotinonitrile], the IC50 in test [1] was found to be 5 nM; in test [2], 3 nM; in test [4] it was 13 nM; in test [5], 7 nM; in [6] it was 4 nM; in test [8], 8 nM. For the same compound, the IC50 worked out at 12 nM in [9] and 14 nM in test [10]. Moreover, the inhibition at 10 µM in test [3] came to 63%. The Ki is not above 100 nM in [7] and 2 nM in test [11]. Moreover, the “cancer cell growth inhibitory action (in words)” value in [12] was “good cancer cell growth inhibitory action over a broad range”.
As to `Cc1cc(Nc2cc(C)c(C#N)c(NCCOc3cccnc3C)n2)n[nH]1` [Example 22, 2-(2-(2-methylpyridin-3-yloxy)ethylamino)-6-(5-methyl-1H-pyrazol-3-ylamino)-4-methylnicotinonitrile dihydrochloride], the IC50 was less than 6.4 nM in [1]; 4 nM in [2]; 8 nM in test [4]; 4 nM in test [5]; 15 nM in test [6]; 7 nM in test [8]. The IC50 in test [9] and in test [10] was less than 6.4 nM each time. Also, the inhibition at 10 µM in test [3] is 79%. For the same compound, in test [12], the “cancer cell growth inhibitory action (in words)” value is reported as “good cancer cell growth inhibitory action over a broad range”. The affinity in [11] corresponds to a Ki of 4 nM.
As for `Cc1ccc(OCCNc2nc(Nc3cc(C)[nH]n3)cc(C)c2C#N)c(C)n1` [Example 23, 2-(2-(2,6-dimethylpyridin-3-yloxy)ethylamino)-6-(5-methyl-1H-pyrazol-3-ylamino)-4-methylnicotinonitrile dihydrochloride], the IC50 in [1] amounted to 40 nM; in test [2] it was 8 nM; in test [4], 50 nM; in [5], 37 nM; in [6], 21 nM; in test [8] it was 13 nM. For the same compound, the IC50 turned out to be 40 nM in [9] and 3 nM in test [10]. Moreover, in test [3], the inhibition at 10 µM was 77%. Further, the “cancer cell growth inhibitory action (in words)” value in [12] is listed as “good cancer cell growth inhibitory action over a broad range”. The compound further gave a Ki in test [11] of 10 nM.
`Cc1cc(Nc2ccc(C#N)c(NCCOc3cccnc3C)n2)n[nH]1` [Example 28, 2-(2-(2-methylpyridin-3-yloxy)ethylamino)-6-(5-methyl-1H-pyrazol-3-ylamino)nicotinonitrile dihydrochloride]: the IC50 in test [1] is less than 6.4 nM; in test [2] it was less than 6.4 nM; in test [4] it was 19 nM; in test [5], 3 nM; in test [6], less than 6.4 nM; in test [8], less than 6.4 nM. The IC50 in test [9] came to 4 nM; in test [10], 6180 nM. For the same compound, the inhibition at 10 µM in test [3] was found to be 69%. Also, the Ki is not above 100 nM in test [7] and 4 nM in test [11].

The term Ki denotes the dissociation constant of the complex between target and ligand, obtained from inhibition or displacement. A higher Ki goes with a looser hold on the target.
